Patent US10967023B2, “Preparation of a chinese medicinal composition including ginseng, ginkgo leaf and stigma croci” (priority 2014, dated 2021)

Key:
[1] = test system: thrombosis of rats; test: Artery-vein shunt thrombosis in rats (thrombus formation in vivo); design: species or system SD rats; details: compositions 3 g/kg, aspirin 0.0044 g/kg
Protocol: (§1) The same volume of saline was given to the Blank control group. The rats were administered once a day for 7 days.
Experiments of thrombus formation, in vivo: 1 h after 7 days of administration, the rats of the groups were hypnotized through intraperitoneal injection with 0.8% sodium pentobarbital, with a dose of 40 mg/kg referring to the artery-vein shunt thrombosis method [Zhang Jun Tian. Modern pharmacology experimental methods. Beijing: Beijing Medical University Press, 1998; 1216-1217], right common carotid artery and left external jugular vein were separated. Three sections of polyethylene plastic pipe were taken, the diameter of the middle section was 2 mm, the length was about 8.5 cm, the diameter of the two plastic pipe of the two ends were 1.5 mm, the length were 10 cm respectively. A No 4 operation silk thread that was weighed previously with a length of about 7 cm was placed in the plastic pipe in the middle section, wherein one end of the thread with the length of 0.5 cm was exposed to the pipe to fix the position, and a silk thread with a length of 6.5 cm was kept in the pipe, the polyethylene plastic pipe was filled with heparin solution, one end of the plastic tube was inserted into the left external jugular vein, the other end of the plastic tube was inserted into the right common carotid artery, then the bloodstream was opened immediately. […]

[2] = test system: ADP induced platelet aggregation of rats; test: Platelet aggregation inhibition test (ADP induced, PRP of dosed rats); format: in vivo, SD rats; details: ADP 5 μmol/L
Protocol: as §1
Platelet aggregation inhibition test: 1 h after 7 days of administration to the rats of the groups, the rats were hypnotized according to the above method, a tube was inserted into the common carotid artery to collect blood, the blood was added 3.8% sodium citrate in a ratio of 1:9 to become anticoagulant, when it was centrifuged for 5 minutes at 500 rpm, the upper portion of the plasma was taken to be the platelet-rich plasma (PRP), the remaining part was centrifuged again for 15 minutes at 3,500 rpm, the supernatant was platelet poor plasma (the PPP), the number of platelet of PRP was counted with platelet counting instrument, the number of platelet of PRP was adjusted with PPP to about […]. The temperature of the sample tube was kept at 37° C. for 3 minutes, then 5 μL ADP was added (final concentration 5 μmol/L), stirring speed of the stirrer was 500 r/min, the space between the rows of the movement of the recording pen was recorded after adding, and the aggregation rate was calculated according to the following formula: Aggregation rate(%)=the itinerary of adding ADP×100%/0˜100% of the itinerary

[3] = test system: hippocampal pyramidal cell; test: Pathological examination of hippocampus of VaD rats (HE); format: in vivo, SD rats; details: 2 months of administration
Protocol: (§2) The sham group and the model group were given gavages of distilled water of the same volume. 2 months, 3 months after the models were created (1 month and 2 months after the administration), the time of the duration of MORRIS water maze were measured. After the last measurement, blood was taken from abdomens aorta, the brain was taken quickly, and the left hemisphere was solidified with liquid nitrogen. In ice bath, with 0.15M HCLO4 homogenates (1 ml was added for 100 mg brain weight) 14000×g 4° C., centrifuged for 20 min, the supernatant was taken, filtered with 0.22 μm membrane, 10 μl was fed into the auto sampler, the content of Ach was determined using HPLC; right hemisphere, 4 for each group, were solidified with formalin, dehydrated, embedded, sliced, HE dyed for pathological examination, homogenates of six brain tissue, AchE, SOD activity and MDA content (colorimetric method) were measured; Indicators such as neuropeptide Y, β-EP in plasma were determined (RIA). The results were analyzed statistically (t test).

[4] = test system: SOD, MDA of brain tissue; test: Activity of SOD and content of MDA in the brains of VaD rats; format: in vivo, SD rats; details: 2 months of administration, compositions 3 g/kg, Huperzine 0.00006 g/kg, Tanakan 0.02 g/kg
Protocol: as §2

[5] = test system: ischemic reperfusion and D-galactose induced learning and memory impairment mice; test: MORRIS water maze in mice with ischemic reperfusion and subcutaneous D-galactose induced learning and memory impairment; format: in vivo, ICR mice; details: 8 weeks
Protocol: (§3) The mice were anaesthetized with chloral hydrate, incisions were made in the necks, ischemia and reperfusion surgery was applied: bilateral common carotid arteries were separated, were clipped by bulldog clamp for 20 minutes, loosened for 2 minutes, then were clipped again for 20 minutes then loosened, at the same time, the tails of the mice were cut, 0.5 mL blood was collected, repeated cerebral ischemia-reperfusion injury was formed, sutured the wounds of the rats then fed them in cages. 7 days after the operation, D-galactose (100 mg/kg, 10 mL/kg) was given to the mice through subcutaneous injection on the back, and simultaneously, the mice were intragastric administered (20 mL/kg) once a day, lasted for 8 weeks; for the sham group, common carotid arteries were separated without clipping, the same volume of saline was injected through subcutaneous injection on the back; for D-galactose group, common carotid arteries were separated without clipping, D-galactose (100 mg/kg, 10 mL/kg) was injected through subcutaneous injection on the back; the ischemia reperfusion group was received an ischemia reperfusion operation, the same volume of saline was injected through subcutaneous injection on the back. The sham group, complex model group, D-galactose group were given gavages of distilled water of the same volume.
(§4) 8 weeks after the administration, the mice were trained for 3 days in the MRRIS water maze, two times a day, the learning and memory behavior were determined on the 4th day, on the 5th day, the heads were cut to take the brains, the brains were formulated into 10% homogenates with saline, the activities of AchE, SOD, GSH-Px, the contents of biochemical indicators such as MDA, NO in the brain tissues were determined (colorimetry). The results were analyzed statistically (t test)

[6] = test system: SOD, GSH-Px, MDA, NO of brain tissue; test: Activities of SOD, GSH-Px and contents of MDA, NO of brain tissue (ischemia-reperfusion + D-galactose mice); format: in vivo, ICR mice; details: 8 weeks, compositions 4 g/kg, Huperzine 0.00008 g/kg, Tanakan 0.03 g/kg
Protocol: as §3, §4

[7] = test system: scopolamine hydrobromide induced acquired memory disorder model mice; test: Scopolamine hydrobromide induced acquired memory disorder model mice, jumping platform test; format: in vivo, ICR mice; details: scopolamine 6 mg/kg mice; compositions 4 g/kg, Huperzine 0.00008 g/kg, Tanakan 0.03 g/kg, 15 days
Protocol: The animals were intragastric administered once a day at a dose of 20 mL/kg, distilled water was given to blank control group and model group, one time a day, lasted for 15 days, 50 minutes after the administration on the 14th day, saline was given to the mice of blank control group through intraperitoneal injection in a volume of 10 ml/kg, the rest animals were given scopolamine through injection (6 mg/kg). 10 minutes later, the mice were placed on the jumping program automatic controller, to adapt for 3 minutes, then power on, the mice were stimulated by electric shock for 5 times, when the mice were stimulated, they jump to the diving platform to avoid electric shock, trained 5 minutes to obtain memory. 60 minutes after the administration on the 15th day, the animals were placed on the jumping program automatic controller, the number of times that the mice left the jump platform and received electric shock and the time of occurrence (the incubation period) were determined (number of errors). The results were analyzed statistically (t test).

[8] = test system: plasma NPY, β-EP; test: Plasma NPY, β-EP of VaD rats (RIA); format: in vivo, SD rats; details: 2 months of administration, compositions 3 g/kg, Huperzine 0.00006 g/kg, Tanakan 0.02 g/kg
Protocol: as §2

[9] = test system: sodium nitrite induced consolidate memory disorder mice; test: Sodium nitrite induced consolidate memory disorder model mice, jumping platform test; format: in vivo, ICR mice; details: sodium nitrite 120 mg/kg mice; compositions 4 g/kg, Huperzine 0.00008 g/kg, Tanakan 0.03 g/kg, 15 days
Protocol: (§5) Experimental grouping was the same as that of test example 5.
The animals were intragastric administered once a day at a dose of 20 mL/kg, distilled water was given to the animals of blank control group and model group, one time a day, lasted for 15 days. 60 minutes after the administration on the 14th day, the mice were placed on the jumping program automatic controller, to train for 5 minutes, and the mice were stimulated by electric shock for 5 times. After the treatment, saline was given immediately to the mice of comparative group through back and neck subcutaneous injection in a volume of 10 ml/kg, sodium nitrite (120 mg/kg) were injected to the rest of the animals. 60 minutes after the administration on the 15th day, the animals of the groups were placed on the jumping program automatic controller, the number of errors and the incubation period of mice within 5 minutes were determined. The results were analyzed statistically (t test).

[10] = test system: reserpine induced acquired memory disorder model mice; test: Reserpine induced acquired memory disorder model mice, jumping platform test; format: in vivo, ICR mice; details: reserpine 0.5 mg/kg mice; compositions 4 g/kg, Huperzine 0.00008 g/kg, Tanakan 0.03 g/kg, 15 days
Protocol: as §5
The animals were intragastric administered once a day at a dose of 20 mL/kg, distilled water was given to the blank control group and the model group, one time a day, lasted for 15 days. After the administration on the 14th day, saline was given immediately to the mice of the blank control group through back and neck subcutaneous injection in a volume of 10 ml/kg, the rest animals were given reserpine hydrochloride (0.5 mg/kg) through back and neck subcutaneous injection. 60 minutes after the injection, the mice were placed on the jumping program automatic controller, to adapt for 3 minutes, then power on, the mice were stimulated by electric shock for 5 times, when the mice were stimulated, they jump to the diving platform to avoid electric shock, trained 5 minutes to obtain memory. 60 minutes after the administration on the 15th day, the animals were placed on the jumping program automatic controller, the number of errors and the incubation period of mice within 5 minutes were determined. The results were analyzed statistically (t test).

[11] = test system: Ach in brains of VaD rats; test: Content of Ach in brains of VaD rats (HPLC); format: in vivo, SD rats; details: 2 months of administration, compositions 3 g/kg, Huperzine 0.00006 g/kg, Tanakan 0.02 g/kg
Protocol: Mobile phase: Na2HPO4 (100 mmol/L), TMACl (0.5 mmol/L), OSA (2.0 mmo/L), MB reagent (0.005% v/v), diluted with redistilled water, 85% PH was adjusted to8.00 by H3PO4, filtered by 0.22 μm aqueous membrane.
Chromatographic conditions: ESA582 type binary pump system, ESA ACH-3 column (150×3 mm 5 μm I.D.), former ESA immobilized enzyme reactor before columns (ESA ACH-SPR, 3 cm), flow rate, 0.35 mL/min, column temperature, 35° C.
Test conditions: 5600 A electrochemical detector; 5040 type solid porous electrode (platinum working electrode, a solid state palladium reference electrode) potential: +300 mV.
The results were analyzed statistically (t test).

[12] = test system: VaD rats; test: MORRIS water maze in VaD rats (permanent ligation of bilateral common carotid artery); format: in vivo, SD rats
Protocol: as §2

[13] = ischemia-reperfusion + D-galactose mice, compositions 4 g/kg, Huperzine 0.00008 g/kg, Tanakan 0.03 g/kg

## CC(=O)Oc1ccccc1C(=O)O [Aspirin]
[1]; Rattus norvegicus, 168 h, 7 days, versus control group, read-out: Inhibition rate (thrombosis)
  inhibition at 4.4 mg/kg: 30.9%
[1]; once a day 7 days, artery-vein shunt 20 minutes
  Wet weights of thrombus: 0.056 ± 0.011 g
[2]; rats dosed 7 days (compositions 3 g/kg, aspirin 0.0044 g/kg), PRP
  Platelet aggregation: 23.27 ± 3.06 %
[2]; rats dosed 7 days, versus control group
  aggregation inhibition rate: 49.57%

## C/C=C1\[C@H]2C=C(C)C[C@]1(N)c1ccc(=O)[nH]c1C2 [Huperzine, huperzine A]
[3]
  Pathological examination: arrangement of the hippocampal pyramidal cells: slightly loose
[4]
  MDA: 2.194 ± 0.251 μmol/mgprot
  SOD: 51.7 ± 9.6 U/mgprot
[5]; [13]
  Length of path (MORRIS water maze): 355.8 ± 234.1 cm
  Time of duration (MORRIS water maze): 21.7 ± 14.6 s
[5]; score: straight line type 1 point, tendency type 2, edge type 3, random type 4, mice
  Search strategy (MORRIS water maze): 2.4 ± 1.0 points
[6]
  GSH-Px: 28.58 ± 2.87 U/mgprot
  MDA: 4.651 ± 0.832 nmol/mgprot
  NO: 1.442 ± 0.295 nmol/mgprot
  SOD: 159.8 ± 21.2 U/mgprot
[7]
  number of errors Within 5 minutes: 0.6 ± 0.6
  the incubation period Within 5 minutes: 281.6 ± 39.4 s
[8]
  NPγ: 847.7 ± 189.1 pg/mL
  β-EP: 1032.9 ± 109.5 pg/mL
[9]
  The incubation time Within 5 min: 229.1 ± 94.6 s
  number of errors Within 5 min: 0.5 ± 0.7
[10]
  number of errors Within 5 min: 0.6 ± 0.9
  the incubation period Within 5 min: 243.1 ± 38.4 s
[11]
  Ach: 1992.6 ± 590.0 ng/g wet weight of brain tissue
[12]; 1 month of administration, compositions 3 g/kg, Huperzine 0.00006 g/kg, Tanakan 0.02 g/kg
  time of duration in MORRIS water maze, 2 months after the model was created: 24.6 ± 19.0 s
[12]; 2 months of administration, compositions 3 g/kg, Huperzine 0.00006 g/kg, Tanakan 0.02 g/kg
  time of duration in MORRIS water maze, 3 months after the model was created: 9.0 ± 5.2 s
[12]; before administration
  time of duration in MORRIS water maze, 1 month after the model was created: 58.6 ± 26.6 s
